Assay results as given in PubChem BioAssay AID1902 (Broad Institute, 2009).
The source made the active and inactive calls.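 Rule for the calls: active = EC50 no more than a set limit of log units above the highest dose; inactive = the rest.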

The compounds below were run against S. pyogenes SKKanGAS, kanamycin survival, BacTiterGlo, 6 h (assay: S. pyogenes SKKanGAS kanamycin growth inhibitors – SKKanGAS strain, luminescence, dose confirmation, streptokinase promoter inhibitor project, dose response (AID 1902);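 note: lower survival reflects blocked streptokinase promoter driving kanamycin resistance gene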).
With `O=C(CSC(=S)N1CCCCC1)Nc1nc(-c2ccccc2)c(-c2ccccc2)o1` the EC50 was 1.76 µM. In the case of `Cc1c(C(=O)Nc2ccc(Oc3ccccc3)cc2)sc2nc3n(c(=O)c12)CCC3`, the EC50 is reported as 6.21 µM. `O=C(NCc1ccc2c(c1)OCO2)Nc1ccc(F)cc1` was tested, and the EC50 was > 15 µM (inactive). With `O=C(N/N=C/c1cc(Cl)cc([N+](=O)[O-])c1O)c1ccccc1NS(=O)(=O)c1cccs1` the EC50 was 12 µM. Compound `CCOC(=O)C1CCN(C2=C(NS(=O)(=O)c3ccc(Cl)cc3)C(=O)c3ccccc3C2=O)CC1` has an EC50 of 7.15 µM. With `Cc1nnc(SCC2=C(C(=O)O)N3C(=O)C(NC(=O)Cn4ncc(Cl)c4C)C3SC2)s1` (configuration not stated) the EC50 was under 0.06 µM. For `O=C(c1cc(-c2cccs2)nc2ccccc12)N1CCN(c2ccccc2O)CC1`, the EC50 was 13.4 µM. With `CCCCCn1c(=O)c(C(=O)Nc2cnccn2)c(O)c2ccccc21` the EC50 was 3.18 µM. `CCc1ccc(-c2cc(C)no2)cc1S(=O)(=O)Nc1cccc(CN2CCCC2)c1` was tested, and the EC50 was > 15 µM (inactive). With `O=C(COc1ccc(F)cc1Cl)Nc1nc(-c2ccccn2)cs1` the EC50 was 1.12 µM. `O=C(Nc1nnc(C2CC2)o1)c1ccc(S(=O)(=O)N2CCCc3ccccc32)cc1` showed an EC50 of 1.34 µM. Compound `Cn1nnnc1SCC(=O)Nc1nc(-c2ccccc2)c(-c2ccccc2)o1` has an EC50 of 7.27 µM. `O=S(=O)(Nc1ccc(O)c(Sc2nc3ccccc3s2)c1)c1cccc2ccccc12` gave an EC50 of 3.09 µM. For `O=C(CCC(=O)Nc1cc(C(F)(F)F)ccc1Cl)N/N=C\c1cc([N+](=O)[O-])ccc1O`, the EC50 was 0.658 µM. Compound `CCOC(=O)c1cccc(N2C(N)=NC(N)=NC2(C)C)c1` has an EC50 of 0.109 µM. In the case of `CCCOc1ccc(C(=O)NNC(=S)NC(=O)c2ccccc2)cc1`, the EC50 is reported as 0.217 µM. Work on `COc1ccc(/C=C/C(=O)NC(=S)NNC(=O)c2cc(OC)c(OC)c(OC)c2)cc1` yielded an EC50 of 1.08 µM. `Cc1cc(NC(c2ccc(Cl)cc2)c2ccc3cccnc3c2O)no1` (configuration not stated) gave an EC50 of 0.602 µM. `Cc1nn(Cc2c(Cl)cccc2Cl)c(C)c1NC(=O)c1cn(-c2ccccc2)nc1-c1ccccc1` gave an EC50 of 9.33 µM. `CCC(C)c1ccc(C2C3=C(Nc4nc(N)[nH]c(=O)c42)c2ccccc2C3=O)cc1` (configuration not stated) showed an EC50 of 3.71 µM. For `C[C@H](CCC(=O)NCC(=O)O)[C@H]1CC[C@H]2C3[C@H](O)C[C@@H]4C[C@H](O)CC[C@]4(C)[C@H]3C[C@H](O)[C@]12C` (some centres not stated), the EC50 was > 15 µM (inactive). Work on `Cc1noc(C)c1CSc1nc2ccccc2nc1NS(=O)(=O)c1ccc(Cl)cc1` yielded an EC50 of 3.13 µM. `O=C(N/N=C/c1c(O)ccc2ccccc12)Nc1ccccc1` was tested, and the EC50 was 7.74 µM. `C/C(=N\NC(=S)NCCc1ccccc1)c1ccc(Cl)cc1Cl` showed an EC50 of 6.56 µM. In the case of `CCOC(=O)c1ccc(NC(=O)c2nc[nH]c2C(=O)NCCCCCNC(=O)OC(C)(C)C)cc1`, the EC50 is reported as 2.83 µM. For `O=C(/C=C/c1ccccc1)NC(NC(=S)Nc1cc(Cl)ccc1Cl)C(Cl)(Cl)Cl` (configuration not stated), the EC50 was 0.55 µM. `CO/N=C(/C(=O)N[C@@H]1C(=O)N2C(C(=O)O)=CCS[C@H]12)c1cnc(N)s1` showed an EC50 of under 0.06 µM. Compound `COc1ccc(OCCn2c(NC(=O)c3ccco3)nc3ccccc32)cc1` has an EC50 of 3.38 µM. `c1ccc(-c2cc(-c3ccncc3)nc3ccc4ccccc4c23)cc1` gave an EC50 of 2.21 µM. `CCc1cccc2sc(N3CCN(C(=O)c4ccc([N+](=O)[O-])o4)CC3)nc12` was tested, and the EC50 was 4.73 µM. Work on `Cc1ccc(NC(=S)c2nc3ccccc3[nH]2)cc1` yielded an EC50 of 1.08 µM. `Clc1ccc(/C=N/NC(=Nc2ccccc2)c2ccccn2)c(Cl)c1` gave an EC50 of 13.5 µM. `CCOC(=O)C1=C(N)Oc2ccc3ccccc3c2C1c1ccc(O)cc1` (configuration not stated) was tested, and the EC50 was 5.68 µM. Work on `COc1ccc(CC2=CC(=O)c3ccccc3C2=O)cc1` yielded an EC50 of 7.96 µM. With `C=C1SC(=Nc2ccccc2Cl)N(C(=O)c2sc3ccccc3c2Cl)C12CCCCC2` the EC50 was 3.48 µM. In the case of `CCC(C(=O)NCCCN1CCCC1=O)n1c2ccccc2c2nc(=O)cc(C)n21` (configuration not stated), the EC50 is reported as > 15 µM (inactive). In the case of `CCCCn1c(NS(=O)(=O)c2ccccc2)c(S(=O)(=O)c2ccc(C)cc2)c2nc3ccccc3nc21`, the EC50 is reported as 3.43 µM. With `CC1CCN(Cc2c(C(=O)N/N=C/c3cc(Cl)ccc3O)nnn2-c2nonc2N)CC1` the EC50 was 2.67 µM. `CCOC(=O)c1sc2nc3c(SCC(=O)O)cc(C(=O)c4cc(F)ccc4O)cn3c(=O)c2c1C` showed an EC50 of 2.11 µM. With `COc1ccc(NC(=S)NC(NC(=O)c2ccc(Cl)cc2Cl)C(Cl)(Cl)Cl)c([N+](=O)[O-])c1` (configuration not stated) the EC50 was 1.15 µM. In the case of `O=C(CSc1nnc(CNC(=O)c2ccccc2)o1)NCCc1ccccc1`, the EC50 is reported as > 15 µM (inactive). Compound `Cc1ccc(-c2cc(-c3ccccc3Cl)[nH]n2)c(O)c1` has an EC50 of 2.19 µM. `CN1/C(=C\C(=O)Nc2ccc(Cl)cc2)C(C)(C)c2ccccc21` showed an EC50 of 8.64 µM. For `O=C(/C=C/c1ccc(F)cc1)NC(=S)NNC(=O)c1cnccn1`, the EC50 was 1.96 µM. Work on `CN=C1S/C(=C\c2ccc(N3CCOCC3)c(F)c2)C(=O)N1C` yielded an EC50 of 4.94 µM. Work on `COc1ccc(N=C2NN=C(c3c(C)[nH]c4ccccc34)CS2)cc1` yielded an EC50 of 7.32 µM. `COc1ccccc1N1CC(C(=O)Nc2nnc(SCC(=O)N3CCCC3)s2)CC1=O` (configuration not stated) was tested, and the EC50 was > 15 µM (inactive). `O=C(O)c1ccc(N/N=C/c2ccc(OC(=O)c3cccc(Cl)c3)cc2)cc1` gave an EC50 of 1.4 µM. In the case of `CCOc1ccccc1NC(=O)c1nc(S(=O)(=O)Cc2cccc(C)c2)ncc1Cl`, the EC50 is reported as 11.1 µM. `O=C(/C=C/c1ccccc1)NC(NC(=S)Nc1cccc(Cl)c1)C(Cl)(Cl)Cl` (configuration not stated) showed an EC50 of 1.85 µM. With `CC(=O)N1c2ccc(S(=O)(=O)N3CCC(C(=O)Nc4cc(C)ccn4)CC3)cc2CC1C` (configuration not stated) the EC50 was > 15 µM (inactive). Work on `COc1ccc(/C=N/NC(=O)Cc2csc(Nc3cccc(C(F)(F)F)c3)n2)cc1C` yielded an EC50 of 3.95 µM.
